Test results from ChEMBL document CHEMBL1201862, “PubChem BioAssay data set” (2004).
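1) Cells in 96-well plates. 2) Compound, 48 h, 5 concentrations. 3) Linear interpolation between surrounding doses. 4) Unreached endpoint = highest concentration. GI50 marks 50% less growth.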 Active and inactive are the calls of the source. Cut-off read from the data, not from the text of the source: active = GI50 up to about 1.1 µM and inactive = higher.

What was measured:
Assay in all cases: NCI-60 cell line screen, 48 h
COLO 205 = system: COLO 205
EKVX = system: EKVX
HCT-15 = system: HCT-15
HOP-62 = system: HOP-62
HOP-92 = system: HOP-92
MCF7 = system: MCF7
MDA-MB-231 = system: MDA-MB-231
NCI-H460 = system: NCI-H460
OVCAR-3 = system: OVCAR-3
OVCAR-5 = system: OVCAR-5
OVCAR-8 = system: OVCAR-8
SF-268 = system: SF-268
SF-295 = system: SF-295
SK-MEL-5 = system: SK-MEL-5
SN12C = system: SN12C
SW-620 = system: SW-620
UACC-257 = system: UACC-257
NCI-H522 = system: NCI-H522
UO-31 = system: UO-31

Row | SMILES | GI50 (COLO 205) | GI50 (EKVX) | GI50 (HCT-15) [µM] | GI50 (HOP-62) | GI50 (HOP-92) | GI50 (MCF7) | GI50 (MDA-MB-231) | GI50 (NCI-H460) | GI50 (OVCAR-3) | GI50 (OVCAR-5) | GI50 (OVCAR-8) | GI50 (SF-268) | GI50 (SF-295) | GI50 (SK-MEL-5) | GI50 (SN12C) | GI50 (SW-620) | GI50 (UACC-257) | GI50 (NCI-H522) | GI50 (UO-31)
1 | COc1cc(Cl)c(CC(=O)c2c[nH]c3ccccc23)cc1OC | > 100 µM (inactive) | 18.7 µM (inactive) | > 100 | 5.3 µM (inactive) | 5.36 µM (inactive) | > 100 µM (inactive) | 8.95 µM (inactive) | > 100 µM (inactive) | > 51.9 µM (inactive) | > 100 µM (inactive) | 8.55 µM (inactive) | 13.7 µM (inactive) | 16.1 µM (inactive) | > 100 µM (inactive) | 58.5 µM (inactive) | > 100 µM (inactive) | > 100 µM (inactive) |  | 
2 | Cc1cc(=O)oc2cc(OS(C)(=O)=O)ccc12 | > 100 µM (inactive) | > 100 µM (inactive) | > 100 | > 100 µM (inactive) | > 100 µM (inactive) | > 100 µM (inactive) | > 100 µM (inactive) | > 100 µM (inactive) | > 100 µM (inactive) | > 100 µM (inactive) | > 100 µM (inactive) | > 100 µM (inactive) | > 100 µM (inactive) | > 100 µM (inactive) | > 100 µM (inactive) | > 100 µM (inactive) | > 100 µM (inactive) | > 100 µM (inactive) | 
3 | O=C(c1ccc(Cl)cc1)N(C(=S)OCCOc1ccccc1)c1ccccc1 | 19.9 µM (inactive) | 20.1 µM (inactive) | 19.3 | 23 µM (inactive) | 3.34 µM (inactive) | 16.1 µM (inactive) | 23.1 µM (inactive) | 23.2 µM (inactive) | 17.2 µM (inactive) | 17 µM (inactive) | 20.3 µM (inactive) | 25.1 µM (inactive) | 27.6 µM (inactive) |  | 19.3 µM (inactive) | 19.1 µM (inactive) | 18.7 µM (inactive) | 19.1 µM (inactive) | 0.186 µM (active)
4 | Cc1c(C(=O)c2ccccc2)[n+]([O-])c2cc(Cl)c(Cl)cc2[n+]1[O-] | 18.1 µM (inactive) | 13.5 µM (inactive) | 1.99 | 15.9 µM (inactive) | 2.96 µM (inactive) | 10.7 µM (inactive) | 11.1 µM (inactive) | 15.9 µM (inactive) | 12.4 µM (inactive) | 17.9 µM (inactive) | 10 µM (inactive) | 15.3 µM (inactive) | 14.9 µM (inactive) | 15.2 µM (inactive) | 15.2 µM (inactive) |  | 3.17 µM (inactive) |  | 11.8 µM (inactive)
5 | COc1cc(C2c3cc4c(cc3C3OC[C@@H]2C3CO)OCO4)cc(OC)c1OC (some centres not stated) | 18.4 µM (inactive) | 41.2 µM (inactive) | 23.3 |  | > 100 µM (inactive) | 35.2 µM (inactive) | 38.1 µM (inactive) | 20.3 µM (inactive) |  | 60.5 µM (inactive) | 40.7 µM (inactive) | 31.3 µM (inactive) | 28.8 µM (inactive) | 11.5 µM (inactive) |  | 34 µM (inactive) | 18.2 µM (inactive) | 23 µM (inactive) | 45.4 µM (inactive)
6 | COc1cccc(/C=C/C2=NN(c3cccc(S(=O)(=O)O)c3)C3(C2)SCC(=O)N3c2nc3ccccc3s2)c1 (configuration not stated) | > 100 µM (inactive) | 69.2 µM (inactive) | 53.5 |  | 94.6 µM (inactive) | 27.6 µM (inactive) | 36.1 µM (inactive) | 35.7 µM (inactive) |  | > 100 µM (inactive) | 40.7 µM (inactive) | 33.3 µM (inactive) |  | 36 µM (inactive) | 33.3 µM (inactive) | 47.9 µM (inactive) | 85.7 µM (inactive) | 14.7 µM (inactive) | 34.9 µM (inactive)
7 | CN(c1ccccc1Cl)S(=O)(=O)c1ccccc1 | > 100 µM (inactive) | 50.4 µM (inactive) | > 100 | > 100 µM (inactive) |  | > 100 µM (inactive) | 81.5 µM (inactive) | > 100 µM (inactive) | > 100 µM (inactive) | > 100 µM (inactive) | > 100 µM (inactive) | > 100 µM (inactive) | > 100 µM (inactive) | 34.9 µM (inactive) | > 100 µM (inactive) | > 100 µM (inactive) | > 100 µM (inactive) | > 100 µM (inactive) | 52.4 µM (inactive)
8 | CC(=O)Nc1ccc2c(C(=O)O)c(C)c(O)nc2n1 | > 100 µM (inactive) | > 100 µM (inactive) | > 100 |  | 5.27 µM (inactive) | > 100 µM (inactive) | > 100 µM (inactive) | > 100 µM (inactive) |  | > 100 µM (inactive) | 83.4 µM (inactive) | 57.7 µM (inactive) | > 100 µM (inactive) | > 100 µM (inactive) | > 100 µM (inactive) | > 100 µM (inactive) | > 100 µM (inactive) | 32.5 µM (inactive) | > 100 µM (inactive)
9 | O=[As](O)(O)c1ccc(/N=N/c2ccc(O)cc2)cc1 | > 100 µM (inactive) | > 100 µM (inactive) | > 100 | > 100 µM (inactive) | > 100 µM (inactive) | > 100 µM (inactive) | > 100 µM (inactive) | > 100 µM (inactive) | > 100 µM (inactive) | > 100 µM (inactive) | > 100 µM (inactive) | > 100 µM (inactive) | > 100 µM (inactive) | > 100 µM (inactive) | > 100 µM (inactive) | > 100 µM (inactive) |  | > 100 µM (inactive) | > 100 µM (inactive)
10 | C=CC(C)(C)C1(CC(OC)OC)C(=O)N(C)c2ccccc21 (configuration not stated) | > 25 µM (inactive) | > 25 µM (inactive) | > 25 | > 25 µM (inactive) | > 25 µM (inactive) | > 25 µM (inactive) | > 25 µM (inactive) | > 25 µM (inactive) | > 25 µM (inactive) | > 25 µM (inactive) | > 25 µM (inactive) | > 25 µM (inactive) | > 25 µM (inactive) | > 25 µM (inactive) | > 25 µM (inactive) | > 25 µM (inactive) | > 25 µM (inactive) |  | > 25 µM (inactive)
11 | CN(C(=O)Cc1cc(Cl)c(Cl)cc1NC(=O)CN)[C@H]1CCCC[C@@H]1N1CCCC1 |  | > 100 µM (inactive) | 37 | > 100 µM (inactive) | > 100 µM (inactive) | 28.6 µM (inactive) | 23.3 µM (inactive) | 29.6 µM (inactive) | 38.8 µM (inactive) | > 100 µM (inactive) | 88.3 µM (inactive) | 77.1 µM (inactive) | 24.2 µM (inactive) |  | 56.6 µM (inactive) | 62.7 µM (inactive) | 18.6 µM (inactive) |  | 33.8 µM (inactive)
12 | COCCOC(=O)NCn1cc(-c2ccccc2)nn1 | > 100 µM (inactive) | > 100 µM (inactive) | > 100 | > 100 µM (inactive) | > 100 µM (inactive) | > 100 µM (inactive) | > 100 µM (inactive) | > 100 µM (inactive) |  | > 100 µM (inactive) | > 100 µM (inactive) |  | > 100 µM (inactive) | > 100 µM (inactive) | > 100 µM (inactive) | > 100 µM (inactive) | > 100 µM (inactive) | > 100 µM (inactive) | 
13 | O=Cc1c2c(cc3c1CC1(C3)Cc3cc4c(c(C=O)c3C1)CCC4)CCC2 | 27.2 µM (inactive) | 47.3 µM (inactive) | > 100 | 17.1 µM (inactive) | 23 µM (inactive) | 36 µM (inactive) | 23.5 µM (inactive) |  | 24.1 µM (inactive) | > 100 µM (inactive) | 47.3 µM (inactive) |  | 59.3 µM (inactive) | 29.9 µM (inactive) | 65.9 µM (inactive) |  | 34.8 µM (inactive) | 24.9 µM (inactive) | 2.37 µM (inactive)
14 | CN(C)C(=O)N1N[C@H](c2ccccc2)[C@@H]1c1ccccc1 | > 100 µM (inactive) | > 100 µM (inactive) | > 100 | > 100 µM (inactive) | > 100 µM (inactive) | > 100 µM (inactive) | > 100 µM (inactive) |  | > 100 µM (inactive) |  | > 100 µM (inactive) |  | 72.3 µM (inactive) | > 100 µM (inactive) | > 100 µM (inactive) | > 100 µM (inactive) | > 100 µM (inactive) | > 100 µM (inactive) | > 100 µM (inactive)
15 | Cc1c(N/C=C(\C#N)C(=O)c2ccc(Cl)cc2)c(=O)n(-c2ccccc2)n1C | > 100 µM (inactive) | > 100 µM (inactive) | > 100 |  | > 100 µM (inactive) | 62.1 µM (inactive) | > 100 µM (inactive) | > 100 µM (inactive) | 72.1 µM (inactive) | > 100 µM (inactive) | 91.8 µM (inactive) |  | > 100 µM (inactive) | 66.7 µM (inactive) | > 100 µM (inactive) | 90.4 µM (inactive) | > 100 µM (inactive) | > 100 µM (inactive) | 64.9 µM (inactive)
16 | Cc1cccc(/C=N/NC(=S)N2CCCCCC2)n1 | < 0.0269 µM (active) | 0.288 µM (active) | 0.049 | 0.219 µM (active) | 0.519 µM (active) | < 0.01 µM (active) | < 0.01 µM (active) | 0.0977 µM (active) | < 0.01 µM (active) |  | 0.0142 µM (active) | < 0.01 µM (active) | 0.331 µM (active) | 0.0661 µM (active) | 0.101 µM (active) | 0.0462 µM (active) | 0.0418 µM (active) | < 0.01 µM (active) | 0.103 µM (active)
